The target in one assay is T1, MMP-9 (Homo sapiens, UniProt P14780).
T1 construct: made in house; host or cells: MMP-9-transfected HT1080 cells (spent media)
As to the kind of experiment: In vitro MMP inhibition, IC50 determination (fluorogenic substrate I). The assay is classed as biochemical. The conditions noted are these: values in parenthesis; 4 μM substrate I; room temperature. On the procedure: Several hydroxamic acids and salts thereof were analyzed in in vitro assays to determine their ability to inhibit the MMP cleavage of peptide substrates. […] and IC50 constants were calculated from the assayed hydroxamic acid-MMP interactions. Human recombinant MMP-1, MMP-2, MMP-9, MMP-13, and MMP-14 were used in this assay. All enzymes were prepared in Assignee's laboratories following usual laboratory procedures. Protocols for the preparation and use of these enzymes are available in the scientific literature. See, e.g., Enzyme Nomenclature (Academic Press, San Diego, Calif., 1992) (and the citations therein). See also, Freije et al., “Molecular cloning and expression of collagenase-3, a novel human matrix metalloproteinase produced by breast carcinomas,” J Biol. Chem., 269(24), 16766-16773 (1994). The MMP-9 proenzyme was purified by gelatin Sepharose chromatography from spent media of MMP-9-transfected HT1080 cells provided by Dr. Howard Welgus of Washington University (St. Louis, Mo.). All MMPs were activated using 4-aminophenylmercuric acetate (“APMA”, Sigma Chemical, St. Louis, Mo.) or trypsin. MMP-9 also was activated using human recombinant MMP-3 (purified in Assignee's laboratory following standard cloning and purification techniques). […] Substrate (I) was purchased from Baychem (Redwood City, Calif.), and substrate II was prepared Assignee's laboratory. Substrate I was used in the IC50 determination assays, while substrate II was used in the Ki determination assays. In the absence of MMP inhibitory activity, either substrate is cleaved at the Gly-Leu peptide bond. […] The stock solutions of the assayed hydroxamic acids (or salts thereof) were prepared in 1% dimethyl sulfoxide (DMSO). […] The experiment controls contained the same amount of Buffer A/DMSO as the assayed sample, but contained no hydroxamic acid (or salt thereof). The assays from which the IC50 determinations were made were performed as follows. […] Louis, Mo.). The assayed hydroxamic acid samples were incubated in MicrofluorTM White Plates (Dynatech, Chantilly, Va.) and analyzed on a Perkin Elmer […] plate reader (Norwalk, Conn.). The excitation wavelength was 328 nm, and the emission wavelength-415 nm. […] As stated in the previous paragraph, samples containing varying concentrations of the same assayed hydroxamic acid were prepared. Inhibition was measured as a reduction in fluorescent intensity as a function of MMP inhibitor concentration. […] All values in Table 2 are given in nM units. The IC50 measurements are in parenthesis.

The target in a further assay is T2, MMP-14 (Homo sapiens, UniProt P50281).
T2 construct: The catalytic domain enzyme was expressed in E. coli inclusion bodies, solubilized in urea; made in house
As to the kind of experiment: In vitro MMP inhibition, Ki determination (fluorogenic substrate II). Particulars: read-out: MMP-14 Ki. It counts as biochemical. As for the experimental part:
Several hydroxamic acids and salts thereof were analyzed in in vitro assays to determine their ability to inhibit the MMP cleavage of peptide substrates. […] and IC50 constants were calculated from the assayed hydroxamic acid-MMP interactions.
Human recombinant MMP-1, MMP-2, MMP-9, MMP-13, and MMP-14 were used in this assay. All enzymes were prepared in Assignee's laboratories following usual laboratory procedures. Protocols for the preparation and use of these enzymes are available in the scientific literature. See, e.g., Enzyme Nomenclature (Academic Press, San Diego, Calif., 1992) (and the citations therein). See also, Freije et al., “Molecular cloning and expression of collagenase-3, a novel human matrix metalloproteinase produced by breast carcinomas,” J Biol. Chem., 269(24), 16766-16773 (1994).
The MMP-14 full length cDNA was provided by Dr. Gregory Goldberg of Washington University (St. Louis, Mo.). The catalytic domain enzyme was expressed in E. coli inclusion bodies, solubilized in urea, purified on a preparative […] reverse phase HPLC column, and then refolded in the presence of zinc acetate and purified for use.
All MMPs were activated using 4-aminophenylmercuric acetate (“APMA”, Sigma Chemical, St. Louis, Mo.) or trypsin. MMP-9 also was activated using human recombinant MMP-3 (purified in Assignee's laboratory following standard cloning and purification techniques).
Two fluorogenic, methoxycoumarin-containing polypeptide substrates were used in the MMP inhibition assays: [drawing 427] Here, “Dpa” is 3-(2,4-dinitrophenyl)-L-2,3-diaminopropionyl group, and “MCA” is 7-methoxycoumarin-4-yl acetyl. Substrate (I) was purchased from Baychem (Redwood City, Calif.), and substrate II was prepared Assignee's laboratory. Substrate I was used in the IC50 determination assays, while substrate II was used in the Ki determination assays. In the absence of MMP inhibitory activity, either substrate is cleaved at the Gly-Leu peptide bond. This cleavage separates the highly fluorogenic peptide from the 2,4-dinitrophenyl quencher, thus resulting in increase of fluorescent intensity.
The stock solutions of the assayed hydroxamic acids (or salts thereof) were prepared in 1% dimethyl sulfoxide (DMSO). These stock solutions were diluted in Buffer A (100 mM Tris-HCl, 100 mM NaCl, 10 mM CaCl2, 0.05% polyoxyethylene 23 lauryl ether, pH 7.5) to obtain solutions with different hydroxamic acid concentrations, i.e., assay solutions with different concentrations of the assayed MMP inhibitory compound. The experiment controls contained the same amount of Buffer A/DMSO as the assayed sample, but contained no hydroxamic acid (or salt thereof).
The assays from which the Ki determinations were made were performed as follows. The assayed hydroxamic acid samples were incubated in separate wells of untreated white polystyrene plates (Nunc Nalgene International, Rochester, N.Y.), and analyzed on a Tecan SpectraFlour Plus plate reader. The excitation wavelength was 330 nm, and the emission wavelength—420 nm. All samples (assayed hydroxamic acids and controls) were incubated in separate plate wells at room temperature for 1 hr in the presence of 4 μM of MMP substrate (II). In the absence of MMP inhibitory activity, substrate II was cleaved at the Gly-Leu bond resulting in an increase of relative fluorescence. Inhibition was observed as a reduced rate of this increase in relative fluorescence. The various hydroxamic acids were analyzed using a single low enzyme concentration with a single substrate concentration fixed at or below the Km. This protocol is a modification of method by Knight et al., FEBS Lett., 296(3), 263-266 (1992). Apparent inhibitory constants were determined by non-linear regression of reaction velocity as a function of inhibitor and enzyme concentration using Morrison's equation, as described by Kuzmic, Anal. Biochem. 286, 45-50 (2000).

Setting [1] is: human recombinant enzyme (catalytic domain), 4 μM substrate II, room temperature, 1 hr.

Counter-ions that a name gives are not always drawn. Like-named read-outs stand apart in the source and are kept apart here.

T1 sequence (P14780 107-707 limits assumed): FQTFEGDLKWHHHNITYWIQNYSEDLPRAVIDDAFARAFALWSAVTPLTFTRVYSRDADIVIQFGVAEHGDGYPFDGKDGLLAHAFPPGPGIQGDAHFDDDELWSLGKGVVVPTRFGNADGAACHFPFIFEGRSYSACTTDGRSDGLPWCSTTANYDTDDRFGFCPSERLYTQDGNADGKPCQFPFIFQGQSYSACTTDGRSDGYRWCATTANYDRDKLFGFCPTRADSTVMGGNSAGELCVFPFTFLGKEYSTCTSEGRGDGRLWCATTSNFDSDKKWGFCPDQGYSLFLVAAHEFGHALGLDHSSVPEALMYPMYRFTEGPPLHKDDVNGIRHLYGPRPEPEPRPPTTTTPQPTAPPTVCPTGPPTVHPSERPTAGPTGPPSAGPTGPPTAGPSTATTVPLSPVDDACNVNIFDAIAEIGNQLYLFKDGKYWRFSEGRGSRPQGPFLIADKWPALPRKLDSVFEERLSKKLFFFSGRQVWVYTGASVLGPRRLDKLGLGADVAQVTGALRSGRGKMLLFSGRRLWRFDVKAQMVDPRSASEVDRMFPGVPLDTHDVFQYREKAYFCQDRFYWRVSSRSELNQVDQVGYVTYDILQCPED

As usually defined, the IC50 is the concentration that inhibits the measured activity by half. The term Ki denotes a measure of affinity in units of concentration, obtained from inhibition or displacement. On to `CCCCc1ccc(N2CCN(S(=O)(=O)C3(C(=O)NO)CCN(CCOC)CC3)CC2)cc1` [Example 5, 4-{[4-(4-butylphenyl)piperazin-1-yl]sulfonyl}-N-hydroxy-1-(2-methoxyethyl)piperidine-4-carboxamide Dihydrochloride], for which the IC50 on MMP-9 is less than 0.0001 µM. The Ki at MMP-14 (setting [1]) is 1.55 µM. `CCCCCc1ccc(N2CCN(S(=O)(=O)C3(C(=O)NO)CCN(CCOC)CC3)CC2)cc1` [Example 6, N-Hydroxy-1-(2-methoxyethyl)-4-{[4-(4-pentylphenyl)piperazin-1-yl]sulfonyl}piperidine-4-carboxamide Dihydrochloride]: the IC50 on MMP-9 came to 0.0002 µM. The Ki at MMP-14 (setting [1]) was 2.3 µM. For the compound `O=C(NO)C1(S(=O)(=O)N2CCN(c3ccc(OCC4CC4)c(F)c3)CC2)CCN(C2CC2)CC1` [Example 10, 1-cyclopropyl-4-[[4-[4-(cyclopropylmethoxy)-3-fluorophenyl]-1-piperazinyl]sulfonyl]-N-hydroxy-4-piperidinecarboxamide, dihydrochloride], the 50% inhibitory concentration (IC50) on MMP-9 turned out to be 0.0003 µM. For the same compound, the Ki at MMP-14 (setting [1]) was determined as 4.34 µM. As to `CCCCOc1ccc(N2CCN(S(=O)(=O)C3(C(=O)NO)CCN(CCOC)CC3)CC2)cc1F` [Example 11, 4-[[4-(4-butoxy-3-fluorophenyl)-1-piperazinyl]sulfonyl]-N-hydroxy-1-(2-methoxyethyl)-4-piperidinecarboxamide, Dihydrochloride], on MMP-9, the IC50 stood at 0.0023 µM. Further, the Ki on MMP-14 (setting [1]) worked out at 3.6 µM. Taken in the same sequence, the figures for `CCCCCc1ccc(C2CCN(S(=O)(=O)C3(C(=O)NO)CCN(CCOC)CC3)CC2)cc1` [Example 15, N-hydroxy-1-(2-methoxyethyl)-4-{[4-(4-pentylpheyl)piperidin-1-yl]sulfonyl}piperidine-4-carboxamide Hydrochloride] were 0.0003 µM and 2.96 µM. `CCCCOc1ccc(N2CCN(S(=O)(=O)C3(C(=O)NO)CCN(c4ccc(C)nc4)CC3)CC2)cc1` [Example 131]: the Ki on MMP-14 (value not in parenthesis) was 3.66 µM. For `O=C1c2ccccc2C(=O)N1CCCCc1ccc(N2CCN(S(=O)(=O)C3(C(=O)NO)CCOCC3)CC2)nc1` [Example 132], the inhibitory constant (Ki) at MMP-14 (value not in parenthesis) came out at 0.158 µM. Regarding `CC(C)CCc1ccc(N2CCN(S(=O)(=O)C3(C(=O)NO)CCOCC3)CC2)nc1` [Example 133], the inhibitory constant (Ki) on MMP-14 (value not in parenthesis) stood at 2.12 µM.

For `CCCc1ccc(N2CCN(S(=O)(=O)C3(C(=O)NO)CCOCC3)CC2)nc1` [Example 136], on MMP-14 (value not in parenthesis), the inhibitory constant (Ki) is 0.159 µM. On the same count and under the same terms, as for `Cc1ccc(N2CCN(S(=O)(=O)C3(C(=O)NO)CCOCC3)CC2)nc1` [Example 138], the figure is 0.0666 µM; as for `CCCCOc1ccc(N2CCN(S(=O)(=O)C3(C(=O)NO)CCN(c4cc(C)ccn4)CC3)CC2)cc1` [Example 139], 1.26 µM. With `CCCCOc1ccc(N2CCN(S(=O)(=O)C3(C(=O)NO)CCN(c4cnccn4)CC3)CC2)cc1` [Example 140], at MMP-14 (value not in parenthesis), the inhibition constant (Ki) was 0.945 µM. Same read-out and setting: for `CCCCOc1ccc(N2CCN(S(=O)(=O)C3(C(=O)NO)CCN(C(=O)OCCOC)CC3)CC2)cc1` [Example 141] the value was 1.14 µM; for `CCCCOc1ccc(N2CCN(S(=O)(=O)C3(C(=O)NO)CCN(c4ccc(OC)nc4)CC3)CC2)cc1` [Example 142], 2.63 µM. With `CCCCOc1ccc(N2CCN(S(=O)(=O)C3(C(=O)NO)CCN(C(=O)c4cc5ccccc5s4)CC3)CC2)cc1` [Example 143], at MMP-14 (value not in parenthesis), the Ki is greater than 10 µM. As to `COCCN1CCC(C(=O)NO)(S(=O)(=O)N2CCN(c3ccc(OCC(F)(F)C(F)(F)F)cc3)CC2)CC1` [Example 144], the Ki on MMP-14 (value not in parenthesis) was greater than 10 µM. Regarding `CCCCOc1ccc(N2CCN(S(=O)(=O)C3(C(=O)NO)CCOCC3)CC2)cc1` [Example 145], the Ki on MMP-14 (value not in parenthesis) turned out to be 2.35 µM. Take `CCCCc1ccc(N2CCN(S(=O)(=O)C3(C(=O)NO)CCN(c4ccc(C)cc4)CC3)CC2)cc1` [Example 146]: the Ki on MMP-14 (value not in parenthesis) was determined as 8.66 µM. `CCCCCc1ccc(N2CCN(S(=O)(=O)C3(C(=O)NO)CCN(c4ccc(C)cc4)CC3)CC2)cc1` [Example 147]: the Ki on MMP-14 (value not in parenthesis) was greater than 10 µM. Regarding `COCCN1CCC(C(=O)NO)(S(=O)(=O)N2CCN(c3ccc(OCCC(C)C)cc3)CC2)CC1` [Example 148], the Ki on MMP-14 (value not in parenthesis) is 6.98 µM.

Turning to `CCCCOc1ccc(N2CCN(S(=O)(=O)C3(C(=O)NO)CCN(c4ccccn4)CC3)CC2)cc1` [Example 149], the Ki at MMP-14 (value not in parenthesis) amounted to 2.66 µM. `CCCCOc1ccc(N2CCN(S(=O)(=O)C3(C(=O)NO)CCN(c4nc5ccccc5o4)CC3)CC2)cc1` [Example 150]: the Ki on MMP-14 (value not in parenthesis) turned out to be 8.65 µM. The same measure, in the same setting: as for `O=C(NO)C1(S(=O)(=O)N2CCN(c3ccc(SC(F)(F)F)cc3)CC2)CCN(Cc2ccccc2)CC1` [Example 152], the figure is 2.24 µM; as for `O=C(NO)C1(S(=O)(=O)N2CCN(c3ccc(OCCCC(F)(F)F)cc3)CC2)CCN(C2CC2)CC1` [Example 153], 6.77 µM; as for `CCCCOc1ccc(N2CCN(S(=O)(=O)C3(C(=O)NO)CCN(c4cccnc4)CC3)CC2)cc1` [Example 154], 3.6 µM. On the same count and under the same terms, as for `CCCCOc1ccc(N2CCN(S(=O)(=O)C3(C(=O)NO)CCN(c4ncc(CC)cn4)CC3)CC2)cc1` [Example 155], the figure is 5.35 µM.

The values above are taken from US20050209278A1, “Piperidinyl- and piperazinyl-sulfonylmethyl hydroxamic acids and their use as protease inhibitors” (priority 2002, published 2005).
